In patent publication US9371337B2, “β-lactamase inhibitors” (The Regents of the University of California, priority 2011, dated 2016):
pIC50, pKi: −log10 of the molar value.

target: T1, Trypsin (UniProt P00760); test: Trypsin inhibition; type: biochemical; conditions: Table 4b, 100 μM inhibitor
T1 construct: IC50 (Estimated from single concentration measurement); Ki
T1 sequence (P00760 1-246): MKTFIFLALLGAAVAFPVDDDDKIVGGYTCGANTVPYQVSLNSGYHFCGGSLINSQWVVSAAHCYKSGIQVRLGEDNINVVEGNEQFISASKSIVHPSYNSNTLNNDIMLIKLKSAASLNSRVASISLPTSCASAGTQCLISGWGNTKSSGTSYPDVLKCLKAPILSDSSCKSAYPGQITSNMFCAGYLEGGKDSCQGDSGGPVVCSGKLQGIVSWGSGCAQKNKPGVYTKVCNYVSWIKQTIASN

| Structure (SMILES) | Percentage activity with 100 μM inhibitor |
| --- | --- |
| O=S(=O)(NCB(O)O)c1ccc(-c2nn[nH]n2)nc1 [CR161, [6-(3-tetrazol-5-yl)pyridin-3-sulfonylamino]methaneboronic acid hydrocloride] | 95 |

same assay, conditions: Table 4c, 100 μM inhibitor

| Structure (SMILES) | Percentage inhibition with 100 μM inhibitor |
| --- | --- |
| O=S(=O)(NCB(O)O)c1ccc(-c2nn[nH]n2)nc1 [CR161, [6-(3-tetrazol-5-yl)pyridin-3-sulfonylamino]methaneboronic acid hydrocloride] | 5 |

same assay, conditions: read-out: IC50 (Estimated from single concentration measurement); Table 4e

| Structure (SMILES) | potency estimated from few doses [µM] |
| --- | --- |
| O=S(=O)(NCB(O)O)c1ccc(-c2nn[nH]n2)nc1 [CR161, [6-(3-tetrazol-5-yl)pyridin-3-sulfonylamino]methaneboronic acid hydrocloride] | 1900 |

system: Trypsin; test: Trypsin inhibition; type: biochemical; conditions: Table 4h, Trypsin vs AmpC

| Structure (SMILES) | Selectivity vs AmpC (comparison of IC50 values) |
| --- | --- |
| O=S(=O)(NCB(O)O)c1ccc(-c2nn[nH]n2)nc1 [CR161, [6-(3-tetrazol-5-yl)pyridin-3-sulfonylamino]methaneboronic acid hydrocloride] | 287879 |

system: Elastase; test: Elastase inhibition; type: biochemical; conditions: Table 4h, Elastase vs AmpC
Text: (§1) To assess the selectivity of the new molecules we determined Ki values against three common serine proteases, Trypsin, Elastase and α-Chymotrypsin, as well as that of a class A β-lactamase, CTX-M-9 (Table 10) (Pouvreau L, et al. (1998), FEBS Lett 423:167-172; Del Mar E G, et al. (1980), Biochemistry 19:468-472; Rodriguez-Martinez J A, et al. (2009), Biotechnol Lett 31:883-887; Chen Y, et al. (2005), J Mol Biol 348:349-362).

| Structure (SMILES) | Selectivity vs AmpC (comparison of IC50 values) |
| --- | --- |
| O=S(=O)(NCB(O)O)c1ccc(-c2nn[nH]n2)nc1 [CR161, [6-(3-tetrazol-5-yl)pyridin-3-sulfonylamino]methaneboronic acid hydrocloride] | 25799 |

target: T2, AmpC β-lactamase (Escherichia coli, UniProt P00811); test: not given; type: biochemical; conditions: Lineweaver-Burk analysis, competition with substrate CENTA
T2 construct: made in house
T2 sequence (P00811 20-377): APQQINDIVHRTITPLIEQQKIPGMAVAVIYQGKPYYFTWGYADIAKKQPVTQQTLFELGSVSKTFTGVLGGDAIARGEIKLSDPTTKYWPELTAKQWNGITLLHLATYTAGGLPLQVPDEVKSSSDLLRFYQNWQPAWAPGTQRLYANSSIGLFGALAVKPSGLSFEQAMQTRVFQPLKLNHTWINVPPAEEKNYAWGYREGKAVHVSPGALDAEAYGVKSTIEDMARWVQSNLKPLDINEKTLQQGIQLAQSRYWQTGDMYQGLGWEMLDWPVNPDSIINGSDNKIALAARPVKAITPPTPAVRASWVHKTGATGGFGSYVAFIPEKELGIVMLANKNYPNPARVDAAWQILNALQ

| Structure (SMILES) | type of inhibition |
| --- | --- |
| O=S(=O)(NCB(O)O)c1ccc(-c2nn[nH]n2)nc1 [CR161, [6-(3-tetrazol-5-yl)pyridin-3-sulfonylamino]methaneboronic acid hydrocloride] | competitive |

same assay, conditions: enzyme incubation and dilution experiments

| Structure (SMILES) | time dependence of inhibition (incubation effect, off-rate) |
| --- | --- |
| O=S(=O)(NCB(O)O)c1ccc(-c2nn[nH]n2)nc1 [CR161, [6-(3-tetrazol-5-yl)pyridin-3-sulfonylamino]methaneboronic acid hydrocloride] | incubation effect owing to slow off-rates |

target: T3, α-chymotrypsin (bovine pancreatic) (Bos taurus, UniProt P00766); test: α-Chymotrypsin inhibition; type: biochemical; conditions: Table 4b, 100 μM inhibitor; read-out: Percentage activity with 100 μM inhibitor
T3 construct: purchased Sigma-Aldrich
Protocol: α-Chymotrypsin assays were performed in 50 mM Tris buffer pH 7.5 with 0.01% Triton-X. Inhibitor and 0.001 mg/mL enzyme were incubated at their final concentration for 10 min before the reaction was initiated by the addition of 200 μM N-succinyl-Ala-Ala-Pro-Phe p-nitroanilide and monitored at 410 nm.
as §1

| Structure (SMILES) | activity at 100 µM [%] |
| --- | --- |
| O=S(=O)(NCB(O)O)c1ccc(-c2nn[nH]n2)nc1 [CR161, [6-(3-tetrazol-5-yl)pyridin-3-sulfonylamino]methaneboronic acid hydrocloride] | 90 |

same assay, conditions: Table 4e; read-out: IC50 (Estimated from single concentration measurement)

| Structure (SMILES) | potency estimated from few doses [µM] |
| --- | --- |
| O=S(=O)(NCB(O)O)c1ccc(-c2nn[nH]n2)nc1 [CR161, [6-(3-tetrazol-5-yl)pyridin-3-sulfonylamino]methaneboronic acid hydrocloride] | 900 |

same assay, conditions: Table 10, α-Chymotrypsin

| Structure (SMILES) | pKi |
| --- | --- |
| O=S(=O)(NCB(O)O)c1ccc(-c2nn[nH]n2)nc1 [CR161, [6-(3-tetrazol-5-yl)pyridin-3-sulfonylamino]methaneboronic acid hydrocloride] | 3.65 |

same assay, conditions: Table 4h, Chymotrypsin vs AmpC

| Structure (SMILES) | Selectivity vs AmpC (comparison of IC50 values) |
| --- | --- |
| O=S(=O)(NCB(O)O)c1ccc(-c2nn[nH]n2)nc1 [CR161, [6-(3-tetrazol-5-yl)pyridin-3-sulfonylamino]methaneboronic acid hydrocloride] | 136364 |

same assay, conditions: read-out: Percentage inhibition with 100 μM inhibitor

| Structure (SMILES) | inhibition at 100 µM [%] |
| --- | --- |
| O=S(=O)(NCB(O)O)c1ccc(-c2nn[nH]n2)nc1 [CR161, [6-(3-tetrazol-5-yl)pyridin-3-sulfonylamino]methaneboronic acid hydrocloride] | 10 |

target: T1, Trypsin; test: Trypsin inhibition; type: biochemical; conditions: Table 10, Trypsin
Text: as §1

| Structure (SMILES) | pKi |
| --- | --- |
| O=S(=O)(NCB(O)O)c1ccc(-c2nn[nH]n2)nc1 [CR161, [6-(3-tetrazol-5-yl)pyridin-3-sulfonylamino]methaneboronic acid hydrocloride] | 3.46 |

target: T2, AmpC β-lactamase; test: biochemical; type: biochemical; conditions: not given
Protocol: FIG. 18. Representative IC50 curves. […] IC50 curves were obtained by measuring rates (in duplicates) at different inhibitor concentrations (x-axis) and by determining the residual activity (y-axis, in percentage). IC50 values were determined by non-linear regression and Ki values calculated using GraphPad software assuming competitive inhibition.
Sulfonamidomethaneboronic acids were dissolved in 100% DMSO at a concentration of 100 mM; more diluted stocks were prepared as necessary. […] The enzyme was expressed and purified as described (Usher, K. C. et al., Biochemistry 1998, 37, 16082-16092) and CENTA was purchased from Tydock Pharma.
Kinetic measurements were run at room temperature in 50 mM sodium-cacodylate pH 6.5 in the presence of 0.01% Triton-X to prevent non-specific inhibition via compound aggregation. […] (Kettner, C. A. and Shenvi, A. B., J. Biol. Chem. 1984, 259, 15106-15114) Reactions were performed in 1 mL cuvettes with 60 μM CENTA and initiated by adding 1.2 nM enzyme. […] (Weston, G. S. et al., J. Med. Chem. 1998, 41, 4577-4586) The first 180 sec of each reaction were used to measure initial rates. IC50 values were obtained by fitting binding data to a sigmoidal dose-response equation using GraphPad Prism (GraphPad software, Inc). Ki values were determined by the use of Cheng-Prusoff equation. (Cheng, Y. and Prusoff, W. H., Biochem. Pharmacol. 1973, 22, 3099-3108)

| Structure (SMILES) | pIC50 |
| --- | --- |
| O=S(=O)(NCB(O)O)c1ccc(-c2nn[nH]n2)nc1 [CR161, [6-(3-tetrazol-5-yl)pyridin-3-sulfonylamino]methaneboronic acid hydrocloride] | 8.18 |

same assay, conditions: Ki

| Structure (SMILES) | pKi |
| --- | --- |
| O=S(=O)(NCB(O)O)c1ccc(-c2nn[nH]n2)nc1 [CR161, [6-(3-tetrazol-5-yl)pyridin-3-sulfonylamino]methaneboronic acid hydrocloride] | 8.89 to 9.10 |

same assay, conditions: Ki (from multi- or single concentration measurements), Table 4g

| Structure (SMILES) | pKi |
| --- | --- |
| O=S(=O)(NCB(O)O)c1ccc(-c2nn[nH]n2)nc1 [CR161, [6-(3-tetrazol-5-yl)pyridin-3-sulfonylamino]methaneboronic acid hydrocloride] | 9.10 |

same assay, conditions: Ki Vs AmpC, Table 7

| Structure (SMILES) | pKi |
| --- | --- |
| O=S(=O)(NCB(O)O)c1ccc(-c2nn[nH]n2)nc1 [CR161, [6-(3-tetrazol-5-yl)pyridin-3-sulfonylamino]methaneboronic acid hydrocloride] | 9.10 |

same assay, conditions: Ki vs AmpC, Table 8

| Structure (SMILES) | pKi |
| --- | --- |
| O=S(=O)(NCB(O)O)c1ccc(-c2nn[nH]n2)nc1 [CR161, [6-(3-tetrazol-5-yl)pyridin-3-sulfonylamino]methaneboronic acid hydrocloride] | 9.10 |

same assay, conditions: Ki, Table 5

| Structure (SMILES) | pKi |
| --- | --- |
| O=S(=O)(NCB(O)O)c1ccc(-c2nn[nH]n2)nc1 [CR161, [6-(3-tetrazol-5-yl)pyridin-3-sulfonylamino]methaneboronic acid hydrocloride] | 9.10 |

same assay, conditions: Ki, Table 10, AmpC

| Structure (SMILES) | pKi |
| --- | --- |
| O=S(=O)(NCB(O)O)c1ccc(-c2nn[nH]n2)nc1 [CR161, [6-(3-tetrazol-5-yl)pyridin-3-sulfonylamino]methaneboronic acid hydrocloride] | 9.10 |

same assay, conditions: Table 5

| Structure (SMILES) | Ligand efficiency |
| --- | --- |
| O=S(=O)(NCB(O)O)c1ccc(-c2nn[nH]n2)nc1 [CR161, [6-(3-tetrazol-5-yl)pyridin-3-sulfonylamino]methaneboronic acid hydrocloride] | 0.64 |

target: CTX-M-9 β-lactamase (Escherichia coli, UniProt Q9L5C8); test: biochemical; type: biochemical; conditions: not given
Protocol: Reactions were initiated by the addition of 0.3 nM enzyme and monitored at 405 nm.
as §1

CTX-M-9 β-lactamase, sequence (Q9L5C8 29-291): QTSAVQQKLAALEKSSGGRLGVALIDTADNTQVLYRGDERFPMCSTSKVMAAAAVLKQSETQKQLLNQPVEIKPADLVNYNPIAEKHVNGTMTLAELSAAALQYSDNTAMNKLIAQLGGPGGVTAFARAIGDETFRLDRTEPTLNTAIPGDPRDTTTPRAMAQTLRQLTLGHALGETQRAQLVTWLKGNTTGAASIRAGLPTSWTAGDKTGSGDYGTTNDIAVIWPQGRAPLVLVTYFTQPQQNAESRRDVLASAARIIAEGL

| Structure (SMILES) | pIC50 |
| --- | --- |
| O=S(=O)(NCB(O)O)c1ccc(-c2nn[nH]n2)nc1 [CR161, [6-(3-tetrazol-5-yl)pyridin-3-sulfonylamino]methaneboronic acid hydrocloride] | 5.17 |

same assay, conditions: Table 8; read-out: Ki vs CTX-M-9

| Structure (SMILES) | pKi |
| --- | --- |
| O=S(=O)(NCB(O)O)c1ccc(-c2nn[nH]n2)nc1 [CR161, [6-(3-tetrazol-5-yl)pyridin-3-sulfonylamino]methaneboronic acid hydrocloride] | 5.41 |

same assay, conditions: Table 4h, CTX-M-9 vs AmpC

| Structure (SMILES) | Selectivity vs AmpC (comparison of IC50 values) |
| --- | --- |
| O=S(=O)(NCB(O)O)c1ccc(-c2nn[nH]n2)nc1 [CR161, [6-(3-tetrazol-5-yl)pyridin-3-sulfonylamino]methaneboronic acid hydrocloride] | 1015 |

same assay, conditions: read-out: IC50 (Estimated from single concentration measurement)

| Structure (SMILES) | potency estimated from few doses [µM] |
| --- | --- |
| O=S(=O)(NCB(O)O)c1ccc(-c2nn[nH]n2)nc1 [CR161, [6-(3-tetrazol-5-yl)pyridin-3-sulfonylamino]methaneboronic acid hydrocloride] | 8 |

same assay, conditions: read-out: Percentage inhibition with 16 μM inhibitor

| Structure (SMILES) | inhibition at 16 µM [%] |
| --- | --- |
| O=S(=O)(NCB(O)O)c1ccc(-c2nn[nH]n2)nc1 [CR161, [6-(3-tetrazol-5-yl)pyridin-3-sulfonylamino]methaneboronic acid hydrocloride] | 66 |

system: clinical strains resistant to third-generation cephalosporins; test: MIC distribution of third-generation cephalosporins alone or with compounds over clinical strains; type: cell-based; conditions: cephalosporins combined with the compound
Protocol: The anti-resistance activity of inhibitors was investigated by the determination of the minimum inhibitory concentrations (MICs) of the β-lactam/inhibitor combination necessary to inhibit the growth of clinically-isolated bacteria resistant to third-generation cephalosporins via expression of class A or class C β-lactamases (Table 6).
Susceptibility testing was performed and interpreted following the guidelines of CLSI. (Clinical and Laboratory Standards Institute, Performance standards for antimicrobial susceptibility testing, 20th Informational Supplement, M100-S20 2010) The compounds were dissolved in 50% DMSO, and dilutions were performed using Muller-Hinton medium. An adequate final concentration was obtained to determine the minimum inhibitory concentrations (MICs). The concentration of DMSO was maintained below 5%. The inhibitors were tested for synergy with the third-generation β-lactams ceftazidime and cefotaxime against several clinical bacteria. The ratio of β-lactams to inhibitors was 1:4. Each value reported reflects the average of three independent experiments. […] The Friedman's test and the Wilcoxon signed rank test were used to compare MIC values. Statistical significance was established at p<0.05.

| Structure (SMILES) | clinical isolates for which MICs dropped into the susceptible range (MICs≦1 μg/mL) [%] |
| --- | --- |
| O=S(=O)(NCB(O)O)c1ccc(-c2nn[nH]n2)nc1 [CR161, [6-(3-tetrazol-5-yl)pyridin-3-sulfonylamino]methaneboronic acid hydrocloride] | 75 |

same assay, conditions: third-generation cephalosporins in combination with the compound

| Structure (SMILES) | MIC 25% percentile [µg/mL] | MIC 75% percentile [µg/mL] |
| --- | --- | --- |
| O=S(=O)(NCB(O)O)c1ccc(-c2nn[nH]n2)nc1 [CR161, [6-(3-tetrazol-5-yl)pyridin-3-sulfonylamino]methaneboronic acid hydrocloride] | 0.5 | 1.5 |
